# Data taken from paper PMC3914206.
# What was measured:
# [1] = target: T1, panel of 442 kinases (Homo sapiens, UniProt Q9H0K1); format: binding; conditions: kinase SIK2; compound concentration 10 µM
# T1 construct: purchased KINOMEscan
# From the text: (§1) We assessed the selectivity of members of this scaffold using the KINOMEscan methodology across a near comprehensive panel of 442 kinases [[18,27]].
# [2] = target: T2, panel of 442 kinases (Homo sapiens, UniProt P57058); format: binding; conditions: Compound Concentration 10 µM
# T2 construct: purchased KINOMEscan
# T2 sequence (P57058 1-714): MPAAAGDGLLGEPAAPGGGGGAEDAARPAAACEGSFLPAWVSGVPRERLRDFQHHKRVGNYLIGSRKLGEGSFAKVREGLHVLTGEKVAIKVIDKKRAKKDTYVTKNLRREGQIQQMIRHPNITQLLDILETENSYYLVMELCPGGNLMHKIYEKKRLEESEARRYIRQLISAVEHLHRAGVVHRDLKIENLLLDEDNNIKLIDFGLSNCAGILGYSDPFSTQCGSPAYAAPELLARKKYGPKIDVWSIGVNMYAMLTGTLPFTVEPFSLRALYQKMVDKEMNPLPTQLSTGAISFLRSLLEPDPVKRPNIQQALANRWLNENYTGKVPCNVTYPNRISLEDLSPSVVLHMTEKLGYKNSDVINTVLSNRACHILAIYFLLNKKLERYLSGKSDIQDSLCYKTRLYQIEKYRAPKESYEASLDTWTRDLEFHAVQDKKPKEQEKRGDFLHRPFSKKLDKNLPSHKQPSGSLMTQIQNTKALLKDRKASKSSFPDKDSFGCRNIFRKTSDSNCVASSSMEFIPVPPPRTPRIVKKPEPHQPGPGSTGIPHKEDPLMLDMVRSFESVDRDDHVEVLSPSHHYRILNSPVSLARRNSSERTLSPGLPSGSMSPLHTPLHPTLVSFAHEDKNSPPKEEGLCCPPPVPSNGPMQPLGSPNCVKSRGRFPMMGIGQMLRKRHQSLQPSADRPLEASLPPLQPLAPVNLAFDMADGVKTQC
# From the text: as §1
# T1 sequence (Q9H0K1 whole entry): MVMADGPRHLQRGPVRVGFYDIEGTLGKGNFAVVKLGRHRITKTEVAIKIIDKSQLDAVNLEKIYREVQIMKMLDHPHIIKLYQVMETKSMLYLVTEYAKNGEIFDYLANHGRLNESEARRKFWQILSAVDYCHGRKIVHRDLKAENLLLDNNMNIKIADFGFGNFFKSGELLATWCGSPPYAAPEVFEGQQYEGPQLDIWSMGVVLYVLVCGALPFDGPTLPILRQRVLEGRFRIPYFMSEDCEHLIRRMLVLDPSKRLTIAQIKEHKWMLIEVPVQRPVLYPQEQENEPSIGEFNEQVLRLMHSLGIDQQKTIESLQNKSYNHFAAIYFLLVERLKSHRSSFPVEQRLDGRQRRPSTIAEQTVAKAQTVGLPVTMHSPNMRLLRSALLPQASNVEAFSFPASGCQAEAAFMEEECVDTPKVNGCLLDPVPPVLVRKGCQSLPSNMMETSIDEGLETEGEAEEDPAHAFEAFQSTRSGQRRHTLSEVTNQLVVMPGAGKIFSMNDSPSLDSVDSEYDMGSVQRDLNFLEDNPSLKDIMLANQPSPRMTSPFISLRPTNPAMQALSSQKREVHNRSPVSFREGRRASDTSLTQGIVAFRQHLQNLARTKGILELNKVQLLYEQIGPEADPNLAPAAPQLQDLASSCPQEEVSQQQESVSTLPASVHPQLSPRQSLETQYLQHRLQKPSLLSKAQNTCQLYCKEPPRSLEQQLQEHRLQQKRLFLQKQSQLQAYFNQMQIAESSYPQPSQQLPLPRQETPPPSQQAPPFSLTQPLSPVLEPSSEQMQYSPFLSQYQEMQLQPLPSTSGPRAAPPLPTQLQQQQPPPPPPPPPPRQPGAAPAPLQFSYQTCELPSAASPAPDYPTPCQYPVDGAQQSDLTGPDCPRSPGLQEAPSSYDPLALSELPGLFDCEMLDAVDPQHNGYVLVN
Structure (SMILES),"% Ctrl, SIK2 [1] [% Ctrl]",KINOMEscan: HUNK [2]
COc1cc(C(=O)N2CCC(N3CCN(C)CC3)CC2)ccc1Nc1ncc2c(n1)N1CCc3cccc(c31)C(=O)N2C [Compound 24],81,–
CCOc1cc(C(=O)N2CCC(N3CCN(C)CC3)CC2)ccc1Nc1ncc2c(n1)N(C1CCCC1)c1ccccc1C(=O)N2C [Compound 26],100,53
"COc1cc(C(=O)N2CCC(N3CCN(C)CC3)CC2)ccc1Nc1ncc2c(n1)N(C1CCCC1)c1ccccc1C(=O)N2C [Compound 25, 11-cyclopentyl-2-((2-methoxy-4-(4-(4-methylpiperazin-1-yl)piperidine-1-carbonyl)phenyl)amino)-5-methyl-5H-benzo[e]pyrimido[5,4-b][1,4]diazepin-6(11H)-one]",95,100
COc1cc(C(=O)N2CCC(N3CCN(C)CC3)CC2)ccc1Nc1ncc2c(n1)N(C)c1ccccc1C(=O)N2C [15 (LRRK2-IN-1)],98,100
